Results: patent US12673975B2, “Cyclic peptide, cell scaffold material, cell separating material, and medium” (FUJIFILM Corporation, priority 2019, dated 2026)
pKd: −log10 of the molar value. Where two headings read alike, the source gives them in different places. Starred links: 1 amine or outer side, 2 acyl side, 3 side chain; linkers in the order of their positions; H or OH if unused. Positions of bridges follow the written chain, without caps; N, C: chain ends. Non-standard residues stand in square brackets, D forms with d. Residues, ends and D or L forms follow the SMILES beside them. Pen = CC(C)(S)[C@H](N)C(=O)O; hCys = N[C@@H](CCS)C(=O)O; Dab = NCC[C@H](N)C(=O)O; Dap = NC[C@H](N)C(=O)O; X1 = O=C(C[*:2])[*:1]; X2 = O=C(C[*:1])[*:2]

Legend:
[1] = Evaluation of molecule stability (alkali treatment, residual rate by LC/MS); format: physicochemical; settings: for Stability (molecule stability, residual rate of the cyclic peptide rank): alkali treatment, residual rate by LC/MS; for Performance evaluation: Stability (residual rate of cyclic peptide after alkali treatment): 500 μM peptide aqueous solution plus equivalent of 1 M sodium hydroxide, 15° C., 3 hours, LC/MS peak area
Summary of the method: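 500 μM aqueous cyclic peptide mixed with an equal volume of 1 M NaOH and held 3 h at 15 °C. Residual rate is total LC/MS peak area after treatment relative to untreated (100%), using a C18 column, pH 3 ammonium formate/acetonitrile gradient, 45 °C, ESI±.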

human integrin αvβ5 = human integrin αvβ5 (Homo sapiens, UniProt P06756+P18084); test: Evaluation of integrin binding property (surface plasmon resonance, Biacore 3000, immobilized cyclic peptide)
Summary of the method: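 SPR with cyclic peptide amine-coupled via EDC/NHS to a CM5 chip, blank channel as reference. Integrin αvβ5 at 30, 100, 300 and 1,000 nM injected 10 min at 25 °C in HEPES buffer pH 7.4 with 5 mM MgCl2, 30 min buffer flow, EDTA regeneration; Kd from reference-subtracted signals, graded by category.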

[2] = surface plasmon resonance, immobilized cyclic peptide, human integrin αvβ5, read-out: Binding activity (integrin binding property, dissociation constant rank)
[3] = SPR, 25° C., HEPES buffer with 5 mM magnesium chloride, integrin 30-1,000 nM, read-out: Performance evaluation: Binding activity (dissociation constant between the cyclic peptide and human integrin αvβ5)

Sequence of human integrin αvβ5 (P06756 31-1048): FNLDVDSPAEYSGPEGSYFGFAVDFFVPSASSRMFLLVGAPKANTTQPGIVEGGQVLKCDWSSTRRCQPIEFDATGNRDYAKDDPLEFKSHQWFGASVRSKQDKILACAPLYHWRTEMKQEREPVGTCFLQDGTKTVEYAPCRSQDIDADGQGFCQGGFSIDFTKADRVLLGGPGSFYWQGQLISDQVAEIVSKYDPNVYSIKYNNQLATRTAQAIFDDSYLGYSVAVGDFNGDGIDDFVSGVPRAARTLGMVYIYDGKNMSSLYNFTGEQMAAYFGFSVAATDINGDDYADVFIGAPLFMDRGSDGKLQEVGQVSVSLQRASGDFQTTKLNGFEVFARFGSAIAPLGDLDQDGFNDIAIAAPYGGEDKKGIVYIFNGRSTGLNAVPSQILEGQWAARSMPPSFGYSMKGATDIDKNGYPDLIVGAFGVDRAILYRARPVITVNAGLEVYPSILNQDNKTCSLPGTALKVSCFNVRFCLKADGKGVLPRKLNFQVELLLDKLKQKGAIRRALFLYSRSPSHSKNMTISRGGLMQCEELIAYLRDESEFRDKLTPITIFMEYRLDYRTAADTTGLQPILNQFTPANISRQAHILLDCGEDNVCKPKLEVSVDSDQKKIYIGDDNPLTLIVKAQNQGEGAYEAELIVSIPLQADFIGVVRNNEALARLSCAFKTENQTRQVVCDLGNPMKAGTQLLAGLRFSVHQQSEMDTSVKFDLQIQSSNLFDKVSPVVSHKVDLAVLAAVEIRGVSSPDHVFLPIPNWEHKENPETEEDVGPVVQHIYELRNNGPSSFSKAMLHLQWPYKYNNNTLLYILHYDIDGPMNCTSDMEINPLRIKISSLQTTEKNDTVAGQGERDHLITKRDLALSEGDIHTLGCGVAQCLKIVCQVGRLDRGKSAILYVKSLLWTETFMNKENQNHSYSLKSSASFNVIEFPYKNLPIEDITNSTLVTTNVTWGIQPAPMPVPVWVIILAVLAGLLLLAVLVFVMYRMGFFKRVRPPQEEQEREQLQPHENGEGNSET
Sequence of human integrin αvβ5 (P18084 24-799): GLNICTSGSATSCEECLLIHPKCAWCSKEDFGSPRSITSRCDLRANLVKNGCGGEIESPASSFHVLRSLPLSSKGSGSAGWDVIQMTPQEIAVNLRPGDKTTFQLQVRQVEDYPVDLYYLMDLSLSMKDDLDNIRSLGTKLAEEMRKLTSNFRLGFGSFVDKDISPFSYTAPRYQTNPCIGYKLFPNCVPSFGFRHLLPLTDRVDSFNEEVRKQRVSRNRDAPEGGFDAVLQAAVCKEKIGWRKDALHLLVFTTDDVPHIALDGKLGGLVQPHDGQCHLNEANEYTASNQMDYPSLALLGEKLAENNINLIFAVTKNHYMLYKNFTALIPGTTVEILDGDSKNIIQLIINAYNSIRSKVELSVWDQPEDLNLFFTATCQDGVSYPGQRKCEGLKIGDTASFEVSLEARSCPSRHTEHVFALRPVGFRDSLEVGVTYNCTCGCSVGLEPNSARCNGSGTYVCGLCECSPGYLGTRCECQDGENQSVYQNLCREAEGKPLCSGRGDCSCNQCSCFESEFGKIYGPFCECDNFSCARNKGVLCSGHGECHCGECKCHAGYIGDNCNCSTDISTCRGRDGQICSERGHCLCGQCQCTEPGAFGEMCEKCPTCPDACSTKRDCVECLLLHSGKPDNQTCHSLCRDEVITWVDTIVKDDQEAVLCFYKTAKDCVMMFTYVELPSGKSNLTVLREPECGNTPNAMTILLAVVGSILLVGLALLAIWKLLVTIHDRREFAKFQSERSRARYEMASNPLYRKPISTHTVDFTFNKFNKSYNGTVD

pKd (human integrin αvβ5; [2]) | pKd (human integrin αvβ5; [3]) | SMILES | Stability (molecule stability, residual rate of the cyclic peptide rank) [1] | Performance evaluation: Stability (residual rate of cyclic peptide after alkali treatment) [1] | molecule stability (in words) ([1]; summary of Table 9 to Table 13)
> 7.30 | – | C[C@@H]1NC(=O)[C@H](Cc2ccccc2)NC(=O)[C@H]([C@@H](C)O)NC(=O)[C@H](CC(=O)O)NC(=O)CNC(=O)[C@H](CCCNC(=N)N)NC(=O)[C@H]([C@@H](C)O)NC(=O)[C@H]([C@@H](C)O)NC(=O)[C@@H](NC(=O)[C@H](CCCCN)NC(=O)[C@H](CCCCN)NC(=O)[C@@H](N)CCCCN)CCSCC(=O)NCC[C@@H](C(=O)O)NC1=O [Cyclic peptide 155, KKK-(Hcy)-TTRGDTFA(Dab(acetyl))] (H-KKK[hCys]TTRGDTFA[Dab]-OH; linker 4-13 via X2) | A (The residual rate of the cyclic peptide is 70% or more.) | – | –
– | > 7.30 | CC(C)[C@@H]1NC(=O)[C@@H](NC(=O)[C@H](C)NC(=O)[C@H](CCCCN)NC(=O)[C@H](CCCCN)NC(=O)[C@@H](N)CCCCN)CCSCC(=O)NCC[C@@H](C(=O)N[C@@H](C)C(=O)O)NC(=O)[C@H](CCCNC(=N)N)NC(=O)[C@H](Cc2ccccc2)NC(=O)[C@H]([C@@H](C)O)NC(=O)[C@H](CC(=O)O)NC(=O)CNC(=O)[C@H](CCCNC(=N)N)NC(=O)[C@H]([C@@H](C)O)NC1=O [Cyclic peptide 89, KKKA-(Hcy)-VTRGDTFR(Dab(acetyl))A] (H-KKKA[hCys]VTRGDTFR[Dab]A-OH; linker 5-14 via X2) | – | A (The residual rate of the cyclic peptide is 70% or more.) | –
– | 7.00 to 7.30 | CC[C@H](C)[C@@H]1NC(=O)[C@H](C)NC(=O)[C@@H](NC(=O)[C@H](CCCCN)NC(=O)[C@H](CCCCN)NC(=O)[C@@H](N)CCCCN)CCSCC(=O)NCC[C@@H](C(=O)N[C@@H](C)C(=O)O)NC(=O)[C@H](C)NC(=O)[C@H](CCCNC(=N)N)NC(=O)[C@H](Cc2ccccc2)NC(=O)[C@H](CC(N)=O)NC(=O)[C@H](CC(=O)O)NC(=O)CNC(=O)[C@H](CCCNC(=N)N)NC(=O)[C@@H]2CCCN2C1=O [Cyclic peptide 17, KKK-(Hcy)-AIPRGDNFRA(Dab(acetyl))A] (H-KKK[hCys]AIPRGDNFRA[Dab]A-OH; linker 4-15 via X2) | – | A (The residual rate of the cyclic peptide is 70% or more.) | –
7.00 to 7.30 | – | CC[C@H](C)[C@@H]1NC(=O)[C@@H](NC(=O)CNC(=O)[C@H](CCCCN)NC(=O)[C@H](CCCCN)NC(=O)[C@@H](N)CCCCN)C(C)(C)SCC(=O)NCC[C@@H](C(=O)N[C@@H](C)C(=O)O)NC(=O)[C@H](CCCNC(=N)N)NC(=O)[C@H](Cc2ccccc2)NC(=O)[C@H]([C@@H](C)O)NC(=O)[C@H](CC(=O)O)NC(=O)CNC(=O)[C@H](CCCNC(=N)N)NC(=O)[C@@H]2CCCN2C1=O [Cyclic peptide 129, KKKG-(Pen)-IPRGDTFR(Dab(acetyl))A] (H-KKKG[Pen]IPRGDTFR[Dab]A-OH; linker 5-14 via X2) | A (The residual rate of the cyclic peptide is 70% or more.) | – | –
7.00 to 7.30 | – | N=C(N)NCCC[C@@H]1NC(=O)[C@H](Cc2ccc(O)cc2)NC(=O)[C@H](CC(N)=O)NC(=O)[C@H](CC(=O)O)NC(=O)CNC(=O)[C@H](CCCNC(=N)N)NC(=O)[C@@H]2CCCN2C(=O)[C@H](CCC(=O)O)NC(=O)[C@@H](NC(=O)[C@H](CCCCN)NC(=O)[C@H](CCCCN)NC(=O)[C@@H](N)CCCCN)CNC(=O)CSC[C@@H](C(=O)O)NC1=O [Cyclic peptide 167, KKK(Dap(acetyl))EPRGDNYR(C), reference compound] (H-KKK[Dap]EPRGDNYRC-OH; linker 4-13 via X1) | D (The residual rate of the cyclic peptide is less than 30%.) | – | a practically sufficient molecule stability could be obtained
